Data set [1] deals with T1, Sodium-dependent dopamine transporter (Homo sapiens, UniProt Q01959). The experiment in a line: biochemical. The data set is classed as cell-based, HEK293.
Description: Displacement of [125I]RTI55 from human DAT expressed in HEK cells
Data set [2] concerns Mus musculus. The data set can be described thus: Antidepressant activity in BALB/c mouse assessed as decrease in duration of immobility at 10 mg/kg, ip pretreated 30 mins before test by forced swimming test. In kind it is functional, organism-based. The arrangement: dose 10 mg/kg.
Data set [3] concerns the target T2, Sodium-dependent noradrenaline transporter (Homo sapiens, UniProt P23975). The experiment in a line: biochemical. In kind it is cell-based, HEK293.
Description: Displacement of [125I]RTI55 from human NET expressed in HEK cells
Data set [4] deals with T3, Sodium-dependent serotonin transporter (Homo sapiens, UniProt P31645). The experiment in a line: Inhibition of [3H]serotonin reuptake at human SERT expressed in HEK cells. In kind it is cell-based, HEK293.
The target of data set [5] is T3, Sodium-dependent serotonin transporter. The data set can be described thus: biochemical. In kind it is cell-based, HEK293.
Description: Displacement of [125I]RTI55 from human SERT expressed in HEK cells
Data set [6] deals with T1, Sodium-dependent dopamine transporter. The data set can be described thus: Inhibition of [3H]dopamine reuptake at human DAT expressed in HEK cells. The data set is classed as cell-based, HEK293.
In data set [7] the target is T2, Sodium-dependent noradrenaline transporter. The data set can be described thus: Inhibition of [3H]norepinephrine reuptake at human NET expressed in HEK cells. In kind it is cell-based, HEK293.
In data set [8] the test system is Mus musculus. The data set can be described thus: Antidepressant activity in BALB/c mouse assessed as change in duration of immobility at 20 mg/kg, ip pretreated 30 mins before test by forced swimming test. The data set is classed as functional, organism-based. On the set-up: dose 20 mg/kg.
A short description of data set [9]: Metabolic stability assessed as half life in mouse liver microsomes. The data set is classed as ADME, Microsome. On the technique in general: Liver microsomes are a subcellular fraction often used to study metabolism.
Data set [10] relates to Mus musculus. The data set can be described thus: Antidepressant activity in ICR mouse assessed as change in duration of immobility at 10 mg/kg, ip pretreated 30 mins before test by forced swimming test. In kind it is functional, organism-based. On the set-up: dose 10 mg/kg.
Data set [11] is described as follows: Metabolic stability assessed as half life in rat liver microsomes. In kind it is ADME, Microsome.

Active and inactive are the calls of the source. No cut-off for these calls is given here.

T3 sequence (P31645 whole entry): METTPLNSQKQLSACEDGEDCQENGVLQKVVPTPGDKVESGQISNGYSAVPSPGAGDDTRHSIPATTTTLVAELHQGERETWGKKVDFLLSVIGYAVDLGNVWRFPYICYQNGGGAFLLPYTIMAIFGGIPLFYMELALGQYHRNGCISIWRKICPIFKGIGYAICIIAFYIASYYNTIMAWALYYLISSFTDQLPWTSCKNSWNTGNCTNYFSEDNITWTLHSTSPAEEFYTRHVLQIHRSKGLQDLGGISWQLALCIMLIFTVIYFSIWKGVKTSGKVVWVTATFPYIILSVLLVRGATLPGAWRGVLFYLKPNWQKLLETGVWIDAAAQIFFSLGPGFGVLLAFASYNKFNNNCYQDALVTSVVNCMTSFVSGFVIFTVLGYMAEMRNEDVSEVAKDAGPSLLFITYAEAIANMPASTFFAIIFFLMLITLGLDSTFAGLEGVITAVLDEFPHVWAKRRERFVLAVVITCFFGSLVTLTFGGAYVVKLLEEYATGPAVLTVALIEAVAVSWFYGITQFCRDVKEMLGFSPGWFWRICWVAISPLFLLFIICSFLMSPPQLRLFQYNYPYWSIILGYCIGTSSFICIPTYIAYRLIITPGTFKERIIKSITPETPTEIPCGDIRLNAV
T2 sequence (P23975 whole entry): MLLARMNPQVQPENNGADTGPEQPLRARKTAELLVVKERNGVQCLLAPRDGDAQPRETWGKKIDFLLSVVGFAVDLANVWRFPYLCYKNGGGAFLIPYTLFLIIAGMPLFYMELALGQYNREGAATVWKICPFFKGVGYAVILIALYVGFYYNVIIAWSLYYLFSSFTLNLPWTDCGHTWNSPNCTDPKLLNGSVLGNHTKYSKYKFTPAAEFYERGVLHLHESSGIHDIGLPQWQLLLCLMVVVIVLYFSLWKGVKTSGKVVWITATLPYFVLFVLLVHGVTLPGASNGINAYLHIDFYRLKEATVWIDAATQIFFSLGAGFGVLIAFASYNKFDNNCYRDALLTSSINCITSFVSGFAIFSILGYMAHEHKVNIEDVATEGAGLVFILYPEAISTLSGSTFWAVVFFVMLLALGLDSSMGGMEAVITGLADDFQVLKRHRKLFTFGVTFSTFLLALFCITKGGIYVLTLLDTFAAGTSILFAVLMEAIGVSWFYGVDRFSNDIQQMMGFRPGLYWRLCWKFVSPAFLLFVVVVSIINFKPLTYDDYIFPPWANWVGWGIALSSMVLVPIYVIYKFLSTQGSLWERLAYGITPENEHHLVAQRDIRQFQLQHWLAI
T1 sequence (Q01959 whole entry): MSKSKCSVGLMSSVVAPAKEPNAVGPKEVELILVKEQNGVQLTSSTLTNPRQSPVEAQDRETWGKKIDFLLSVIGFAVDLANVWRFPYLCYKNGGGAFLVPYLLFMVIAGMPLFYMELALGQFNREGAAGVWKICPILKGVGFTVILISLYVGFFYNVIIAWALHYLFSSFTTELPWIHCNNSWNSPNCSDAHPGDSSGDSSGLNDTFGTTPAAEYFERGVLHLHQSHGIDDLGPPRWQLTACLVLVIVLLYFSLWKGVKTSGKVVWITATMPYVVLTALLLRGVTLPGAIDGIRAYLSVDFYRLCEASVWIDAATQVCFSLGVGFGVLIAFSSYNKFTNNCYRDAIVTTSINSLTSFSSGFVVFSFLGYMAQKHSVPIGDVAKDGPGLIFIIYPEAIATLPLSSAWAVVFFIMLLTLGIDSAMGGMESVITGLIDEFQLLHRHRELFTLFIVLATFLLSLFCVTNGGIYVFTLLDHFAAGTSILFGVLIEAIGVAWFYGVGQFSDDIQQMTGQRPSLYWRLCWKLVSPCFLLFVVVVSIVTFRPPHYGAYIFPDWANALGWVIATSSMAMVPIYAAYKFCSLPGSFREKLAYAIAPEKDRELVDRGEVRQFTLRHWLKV

As for `COc1ccc(F)cc1CC[C@H]1CC[C@H](CN)O1`, the Ki (commonly the dissociation constant of the complex between target and ligand, obtained from inhibition or displacement) in data set [1] is 14.5 µM.
Consider `COc1ccc(F)cc1CCCC1CCC(CCN)O1` (mixture of isomers), for which the outcome in data set [2] was inactive.
With `NCC1CCC(CCc2c(F)c(F)c(F)c(F)c2F)O1` (configuration not stated), the Ki in data set [1] was more than 10 µM.
For the compound `NCCC1CCC(c2ccco2)O1` (configuration not stated), the Ki in [3], in data set [1] and in [5] was more than 10 µM throughout. Moreover, the IC50 in data set [4], in [6] and in data set [7] was more than 10 µM throughout.
`COc1ccc(F)cc1CCC[C@H]1CC[C@H](CN)O1` (relative stereo): the figures for the IC50 in data set [4] and in data set [6] were 0.0021 µM and 7.62 µM, respectively. For the same compound, the Ki in [5] was 0.0008 µM.
With `COc1ccc(F)cc1C1CCC(CN)O1` (configuration not stated), in data set [6], the 50% inhibitory concentration (IC50) (usually the concentration needed to halve the response being measured) is more than 10 µM.
Regarding `COc1ccc(F)cc1C[C@@H]1CC[C@H](CN)O1` (relative stereo), the IC50 in data set [6] was found to be 18.7 µM.
In data set [1], `COc1ccc(F)cc1[C@@H]1CC[C@H](CCN)O1` (relative stereo) returned a Ki of more than 10 µM. In addition, in data set [6], the IC50 is more than 10 µM.
Compound `COc1ccc(F)cc1C[C@H]1CC[C@H](CN)O1` (relative stereo) registered an IC50 in [6] of 28.9 µM.
Compound `COc1ccc(F)cc1C[C@@H]1CC[C@H](CCN)O1` (relative stereo) yielded an IC50 in data set [7] of 1.86 µM.
As for `NCC1CCC(CCc2cccc3ccccc23)O1` (configuration not stated), the Ki in data set [3] is more than 10 µM; in data set [1], more than 10 µM; in [5], 0.018 µM. Further, the IC50 in data set [6] is more than 10 µM.
In data set [1], `COc1ccc(C2CCC(CN)O2)cc1` (configuration not stated) gave a Ki of more than 10 µM.
As to `COc1ccc(CCC2CCC(CCN)O2)c2ccccc12` (configuration not stated), the Ki in [3] and in data set [1] was more than 10 µM in each case.
Consider `COc1ccc(F)cc1[C@H]1CC[C@H](CN)O1` (relative stereo), for which the Ki in [1] was more than 10 µM. In [6], the IC50 was more than 10 µM.
For `COc1ccc(F)cc1CCC[C@@H]1CC[C@H](CN)O1` (relative stereo), the Ki is 4.58 µM in data set [1] and 0.0028 µM in data set [5]. The IC50 in data set [4] came out at 0.0026 µM; in [6], 6.29 µM.
`NCC1CCC(c2ccc3ccccc3c2)O1` (configuration not stated): the Ki in data set [3] is more than 10 µM. Besides, half-maximal inhibition in data set [4] (IC50) was put at 0.004 µM.
As for `CNCCC(Oc1ccc(C(F)(F)F)cc1)c1ccccc1` (configuration not stated), the outcome in data set [8] was inactive. In addition, the outcome in [2] was Active.
Take `COc1ccc2ccccc2c1CCC1CCC(CCN)O1` (configuration not stated): the Ki in [3] and in data set [1] was more than 10 µM in each case.
Consider `COc1ccc(F)cc1CCC1CCC(CCN)O1` (configuration not stated), for which, in data set [9], the half-life – broadly, the time in which the quantity being followed falls by half – came to 56 min. In [10], the result was inactive.
For `CC(C)(C)c1ccc(C2CCC(CN)O2)cc1` (configuration not stated), the Ki in [1] and in [5] was more than 10 µM throughout.
In the case of `NCC1CCC(CCc2cccnc2)O1` (configuration not stated), the Ki in data set [1] was more than 10 µM. Besides, the IC50 is 2.72 µM in data set [4], more than 10 µM in data set [6] and more than 10 µM in data set [7].
The compound `NCC1CCC(c2ccc(Br)cc2)O1` (configuration not stated) registered a Ki in data set [3] of more than 10 µM.
With `COc1ccc(F)cc1CCCC[C@H]1CC[C@H](CN)O1` (relative stereo), the values for the Ki in data set [1] and in [5] were 3.87 µM and 0.004 µM, respectively. For the same compound, the IC50 in data set [4] amounted to 0.084 µM; in data set [6] it was 16.5 µM.
As for `CNCCC1CCC(CCc2cc(F)ccc2OC)O1` (configuration not stated), the half-life was 129 min in [11] and 58.5 min in data set [9].
Take `COc1ccc(F)cc1C[C@H]1CC[C@H](CCN)O1` (relative stereo): in data set [7], the IC50 came out at 1.77 µM.
In the case of `COc1ccc(F)cc1[C@H]1CC[C@H](CCN)O1`, the Ki in [1] was 32.9 µM. In [6], the IC50 is more than 10 µM.
Consider `NCCC1CCC(Cc2ccccc2)O1` (configuration not stated), for which the Ki in data set [3] and in data set [1] was more than 10 µM each time.

The record behind these values is ChEMBL document CHEMBL1152751, “2,5-Disubstituted tetrahydrofurans as selective serotonin re-uptake inhibitors” (Bioorg Med Chem, 2009).
